Test results published in PubChem BioAssay (NCI).
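Cells were grown in 96-well plates and exposed to each compound for 48 hours at five concentrations; endpoints were interpolated linearly between bracketing concentrations, or set to the highest concentration if not reached. GI50 marks 50% less growth. TGI: total growth inhibition.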

Columns and labels:
Assay in all cases: DTP human tumour cell line panel, 48 h
[1] = system: 786-0 renal
[2] = system: SF-268 CNS
[3] = system: MDA-MB-231 breast
[4] = system: SK-OV-3 ovarian
[5] = system: SF-539 CNS
[6] = system: T-47D breast
[7] = system: SK-MEL-28 melanoma
[8] = system: HL-60(TB) leukemia
[9] = system: COLO 205 colon
[10] = system: HCC-2998 colon
[11] = system: M14 melanoma
[12] = system: UO-31 renal
[13] = system: TK-10 renal
[14] = system: MDA-MB-468 breast
[15] = system: UACC-62 melanoma
[16] = system: HOP-92 NSCLC
[17] = system: MCF7 breast
[18] = system: MALME-3M melanoma
[19] = system: A498 renal
[20] = system: OVCAR-5 ovarian
[21] = system: ACHN renal
[22] = system: CAKI-1 renal
[23] = system: NCI-H23 lung
[24] = system: SN12C renal
[25] = system: UACC-257 melanoma
[26] = system: SK-MEL-2 melanoma
[27] = system: RXF 393 renal
[28] = system: HOP-62 NSCLC
[29] = system: IGROV1 ovarian
[30] = system: NCI-H522 lung
[31] = system: EKVX NSCLC
[32] = system: SNB-19 CNS
[33] = system: A549 NSCLC
[34] = system: BT-549 breast
[35] = system: RPMI-8226 leukemia
[36] = system: NCI-H226 lung
[37] = system: NCI/ADR-RES ovarian
[38] = system: SNB-75 CNS
[39] = system: SK-MEL-5 melanoma
[40] = system: HS 578T breast
[41] = system: K-562 leukemia
[42] = system: HCT-15 colon
[43] = system: SF-295 CNS
[44] = system: LOX IMVI melanoma
[45] = system: OVCAR-4 ovarian
[46] = system: HCT-116 colon
[47] = system: DU-145 prostate
[48] = system: PC-3 prostate

Compound: COc1ccc2c(c1)c(-c1cc3nc(-c4cn(C)c5ncc(Br)cc45)cc(N)n3n1)cn2C
- GI50 [1]: 1.73 µM
- TGI [1]: 3.16 µM
- GI50 [2]: 2.3 µM
- TGI [2]: 6.14 µM
- GI50 [3]: 1.62 µM
- TGI [3]: 3.28 µM
- GI50 [4]: 2.41 µM
- TGI [4]: 6.25 µM
- GI50 [5]: 1.67 µM
- TGI [5]: 3.13 µM
- GI50 [6]: 1.66 µM
- TGI [6]: 3.68 µM
- GI50 [7]: 1.61 µM
- TGI [7]: 3.02 µM
- GI50 [8]: 2.07 µM
- TGI [8]: 5.39 µM
- GI50 [9]: 1.81 µM
- TGI [9]: 3.44 µM
- GI50 [10]: 1.66 µM
- TGI [10]: 3.16 µM
- GI50 [11]: 1.66 µM
- TGI [11]: 3.23 µM
- GI50 [12]: 1.78 µM
- TGI [12]: 4.41 µM
- GI50 [13]: 2.36 µM
- TGI [13]: 6.69 µM
- GI50 [14]: 1.32 µM
- TGI [14]: 2.82 µM
- GI50 [15]: 1.56 µM
- TGI [15]: 3.1 µM
- GI50 [16]: 2.05 µM
- TGI [16]: 4.24 µM
- GI50 [17]: 1.77 µM
- TGI [17]: 3.72 µM
- GI50 [18]: 1.92 µM
- TGI [18]: 3.47 µM
- GI50 [19]: 2.18 µM
- TGI [19]: 7.22 µM
- GI50 [20]: 1.63 µM
- TGI [20]: 3.96 µM
- GI50 [21]: 1.5 µM
- TGI [21]: 3.15 µM
- GI50 [22]: 1.48 µM
- TGI [22]: 3.3 µM
- GI50 [23]: 2.25 µM
- TGI [23]: 6.77 µM
- GI50 [24]: 2.11 µM
- TGI [24]: 6.03 µM
- GI50 [25]: 1.79 µM
- TGI [25]: 3.72 µM
- GI50 [26]: 2.07 µM
- TGI [26]: 4.84 µM
- GI50 [27]: 1.96 µM
- TGI [27]: 3.57 µM
- GI50 [28]: 2.09 µM
- TGI [28]: 5.98 µM
- GI50 [29]: 2.04 µM
- TGI [29]: 4.54 µM
- GI50 [30]: 1.87 µM
- TGI [30]: 3.9 µM
- GI50 [31]: 1.48 µM
- TGI [31]: 3.39 µM
- GI50 [32]: 2.25 µM
- TGI [32]: 5.58 µM
- GI50 [33]: 2.31 µM
- TGI [33]: 9.05 µM
- GI50 [34]: 2.12 µM
- TGI [34]: 4.49 µM
- GI50 [35]: 3.32 µM
- TGI [35]: > 100 µM
- GI50 [36]: 4.19 µM
- TGI [36]: 20.1 µM
- GI50 [37]: 2.28 µM
- TGI [37]: 5.62 µM
- GI50 [38]: 1.66 µM
- TGI [38]: 4.58 µM
- GI50 [39]: 3.27 µM
- TGI [39]: 12.1 µM
- GI50 [40]: 2.29 µM
- TGI [40]: 6.47 µM
- GI50 [41]: 3.17 µM
- TGI [41]: > 100 µM
- GI50 [42]: 1.48 µM
- TGI [42]: 3.54 µM
- GI50 [43]: 1.77 µM
- TGI [43]: 3.65 µM
- GI50 [44]: 1.53 µM
- TGI [44]: 2.89 µM
- GI50 [45]: 2.13 µM
- TGI [45]: 5.17 µM
- GI50 [46]: 1.66 µM
- TGI [46]: 3.04 µM
- GI50 [47]: 2.79 µM
- TGI [47]: 8.15 µM
- GI50 [48]: 2.45 µM
- TGI [48]: > 100 µM
